Experimental data from US20180071242A1, “SUBSTITUTED ACYLANILIDES AND METHODS OF USE THEREOF” (University of Tennessee Research Foundation, priority 2006, published 2018).

Assays:
CYP2C19 = biological target: T1, CYP2C19 (Homo sapiens, UniProt P33261); test: CYP inhibition screening, recombinant enzyme (fluorescent-based) assay; format: in vitro ADME; details: for Inhibition of CYP2C19 activity (in words): human, human cDNA-expressed (recombinant) CYP2C19, 30 min
T1 construct: purchased Gentest, BD Biosciences

ER-α = biological target: T2, ER-α (Rattus norvegicus, UniProt P06211); test: Transient transfection luciferase transactivation assay in HEK-293 cells; format: cell-based; details: for ER-α transactivation, agonist mode (in words): up to the highest tested concentration (1 μM); for Inhibition of estradiol-induced ER-α activity, antagonist mode (in words): with 1 nM estradiol
T2 construct: expressed in transfected cells; host or cells: HEK-293
T2 sequence (P06211 1-600): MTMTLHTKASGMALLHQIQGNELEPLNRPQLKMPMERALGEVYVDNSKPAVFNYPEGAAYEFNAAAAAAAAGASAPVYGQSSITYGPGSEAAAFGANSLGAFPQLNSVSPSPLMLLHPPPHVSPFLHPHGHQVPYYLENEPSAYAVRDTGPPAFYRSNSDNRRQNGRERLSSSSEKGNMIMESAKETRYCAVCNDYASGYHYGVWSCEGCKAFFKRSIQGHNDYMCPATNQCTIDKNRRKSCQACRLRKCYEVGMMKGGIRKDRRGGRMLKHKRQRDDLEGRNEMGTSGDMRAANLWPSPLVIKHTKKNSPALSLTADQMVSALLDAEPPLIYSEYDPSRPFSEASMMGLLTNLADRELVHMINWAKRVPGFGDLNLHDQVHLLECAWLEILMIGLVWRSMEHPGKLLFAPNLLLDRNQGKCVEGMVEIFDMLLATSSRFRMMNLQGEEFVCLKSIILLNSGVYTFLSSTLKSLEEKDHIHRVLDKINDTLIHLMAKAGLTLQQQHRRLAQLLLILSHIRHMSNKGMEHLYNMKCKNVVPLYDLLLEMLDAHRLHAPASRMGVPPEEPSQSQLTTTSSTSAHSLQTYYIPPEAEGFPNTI

[1] = biological target: T3, Recombinant androgen receptor ligand binding domain (AR LBD) (Homo sapiens, UniProt P10275); test: In vitro competitive radioligand binding assay with [3H]mibolerone
T3 sequence (P10275 669-900 limits assumed): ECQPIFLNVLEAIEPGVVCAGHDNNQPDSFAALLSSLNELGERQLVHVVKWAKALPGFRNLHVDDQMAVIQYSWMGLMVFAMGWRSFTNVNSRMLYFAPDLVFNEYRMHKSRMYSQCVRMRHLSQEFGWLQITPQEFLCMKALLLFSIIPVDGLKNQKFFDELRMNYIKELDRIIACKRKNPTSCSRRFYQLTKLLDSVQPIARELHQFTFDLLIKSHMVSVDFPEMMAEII
Experimental: Following incubation, plates were harvested with GF/B filters on the Unifilter-96 Harvester (PerkinElmer) and washed three times with ice-cold buffer B (60 mM Tris, pH 7.2). The filter plates were dried at RT, then 36 μl Microscint-O® cocktail was added to each well and sealed with TopSeal-A®. The receptor bound radioligand was then determined with the TopCount® NXT Microplate Scintillation Counter (PerkinElmer).
The equilibrium binding constant (Ki) of each compound was then determined with the following equation:

CYP2D6 = CYP2D6 (Homo sapiens, UniProt P10635); test: CYP inhibition screening, recombinant enzyme (fluorescent-based) assay
Experimental: (§1) Human recombinant CYP enzymes and fluorescence-based substrates were used to determine the IC50 values of S-(I) against CYP3A4, 2D6, 2C19, 2C9, and 1A2.
(§2) CYP inhibition screening procedures were performed essentially according to the manufacturer's instructions (Gentest, BD Biosciences, Waltham, Mass.). Briefly, CYP enzyme inhibition was measured using human cDNA-expressed CYP3A4, 2D6, 2C19, 2C9, and 1A2 enzymes. Analogs of the model substrate coumarin were utilized for each isoenzyme.
(§3) The concentration of acetonitrile was kept constant at 0.4%, and the reaction was carried out at 37° C. for 30 minutes.
(§4) For IC50 determination, data was fitted using the non-linear regression equation “sigmoidal dose response, variable slope” defined as: Y=Bottom+(Top-Bottom)/(1+10̂((Log EC50−X)*HillSlope)) where X is the logarithm of concentration of the indicated compound, and Y is the response.

CYP1A2 = biological target: T4, CYP1A2 (Homo sapiens, UniProt P05177); test: as above
T4 sequence (P05177 1-516): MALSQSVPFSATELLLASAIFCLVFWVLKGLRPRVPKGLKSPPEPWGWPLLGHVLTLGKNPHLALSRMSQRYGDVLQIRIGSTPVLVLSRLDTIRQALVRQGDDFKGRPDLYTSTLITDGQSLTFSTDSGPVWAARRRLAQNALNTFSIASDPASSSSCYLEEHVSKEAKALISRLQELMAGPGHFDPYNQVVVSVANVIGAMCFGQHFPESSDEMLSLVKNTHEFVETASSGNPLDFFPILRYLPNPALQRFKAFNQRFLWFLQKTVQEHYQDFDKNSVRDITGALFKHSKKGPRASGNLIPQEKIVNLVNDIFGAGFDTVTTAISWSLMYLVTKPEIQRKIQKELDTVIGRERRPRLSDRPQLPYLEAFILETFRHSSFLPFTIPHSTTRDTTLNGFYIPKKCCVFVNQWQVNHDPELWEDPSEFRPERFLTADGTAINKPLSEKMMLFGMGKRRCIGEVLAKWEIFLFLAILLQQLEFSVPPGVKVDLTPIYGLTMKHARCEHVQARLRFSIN
Experimental: as §1, §2, §3, §4

T1 sequence (P33261 whole entry): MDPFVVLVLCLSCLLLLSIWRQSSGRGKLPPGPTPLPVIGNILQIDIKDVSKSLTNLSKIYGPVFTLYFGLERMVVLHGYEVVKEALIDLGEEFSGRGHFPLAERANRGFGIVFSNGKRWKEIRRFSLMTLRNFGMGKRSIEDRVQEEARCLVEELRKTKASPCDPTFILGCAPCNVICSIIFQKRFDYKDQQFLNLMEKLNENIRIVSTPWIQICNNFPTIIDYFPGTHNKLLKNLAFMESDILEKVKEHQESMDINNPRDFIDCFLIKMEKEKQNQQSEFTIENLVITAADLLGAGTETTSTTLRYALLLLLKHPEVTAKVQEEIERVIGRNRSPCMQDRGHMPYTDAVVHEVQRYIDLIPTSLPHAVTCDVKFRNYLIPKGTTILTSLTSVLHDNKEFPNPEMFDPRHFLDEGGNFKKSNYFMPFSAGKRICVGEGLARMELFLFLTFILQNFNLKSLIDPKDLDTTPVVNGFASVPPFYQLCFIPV
Sequence of CYP2D6 (P10635 whole entry): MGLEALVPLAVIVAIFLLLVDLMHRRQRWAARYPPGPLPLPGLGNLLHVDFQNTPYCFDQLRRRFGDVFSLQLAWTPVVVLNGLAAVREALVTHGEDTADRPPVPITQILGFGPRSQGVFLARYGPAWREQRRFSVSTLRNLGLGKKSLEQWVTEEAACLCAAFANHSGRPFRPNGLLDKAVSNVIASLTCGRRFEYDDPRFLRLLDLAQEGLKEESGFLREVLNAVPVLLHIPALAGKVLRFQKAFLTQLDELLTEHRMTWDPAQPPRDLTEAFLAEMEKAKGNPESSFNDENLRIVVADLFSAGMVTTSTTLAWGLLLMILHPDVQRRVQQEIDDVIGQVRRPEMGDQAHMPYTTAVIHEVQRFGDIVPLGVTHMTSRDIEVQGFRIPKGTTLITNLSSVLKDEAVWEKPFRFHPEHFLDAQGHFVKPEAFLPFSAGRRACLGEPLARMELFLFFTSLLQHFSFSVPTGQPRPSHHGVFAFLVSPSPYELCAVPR

Structure (SMILES)	IC50 (CYP2C19) [µM]	ER-α transactivation, agonist mode (in words) (ER-α)	Inhibition of estradiol-induced ER-α activity, antagonist mode (in words) (ER-α)	Ki [1] [µM]	IC50 (CYP2D6) [µM]	IC50 (CYP1A2) [µM]	Inhibition of CYP2C19 activity (in words) (CYP2C19)
C[C@](O)(COc1ccc(C#N)cc1)C(=O)Nc1ccc(C#N)c(Cl)c1 [S-(I), (S)—N-(3-chloro-4-cyanophenyl)-3-(4-cyanophenoxy)-2-hydroxy-2-methylpropanamide]	> 20	failed to activate	failed to alter	0.0369	> 20	> 20	
C[C@](O)(COc1ccc(F)cc1)C(=O)Nc1ccc(C#N)c(C(F)(F)F)c1 [S-(III)]	0.1	failed to activate	failed to alter		> 20	> 20	moderate inhibition
C[C@](O)(COc1ccc(Cl)cc1)C(=O)Nc1ccc(C#N)c(C(F)(F)F)c1 [S-(II)]	0.1	failed to activate	failed to alter		> 20	> 20	moderate inhibition
